Experimental data taken from ChEMBL document CHEMBL3769355, “Fragment-Based Design of Selective Nanomolar Ligands of the CREBBP Bromodomain” (J Med Chem, 2016).
Activity calls are given as the source filed them. No cut-off for these calls is given here.

What was measured:
HL-60 = assay: Cytotoxicity against human HL60 cells assessed as assessed as growth inhibition after 48 hrs by resazurin assay; format: functional, cell-based
ML-2 = assay: (§1) Cytotoxicity against human ML2 cells assessed as growth inhibition after 48 hrs by resazurin assay; format: functional
CREB-binding protein [1] = molecular target: T1, CREB-binding protein (Homo sapiens, UniProt Q92793); assay: Binding affinity to human His-tagged CREBBP expressed in Escherichia coli BL21(DE3) cells at 100 uM by SYPRO orange staining based fluorescence thermal shift assay
MOLM-13 = assay: (§2) Cytotoxicity against human MOLM13 cells assessed as assessed as growth inhibition after 48 hrs by resazurin assay; format: functional
[2] = molecular target: T2, Bromodomain-containing protein 2 (Homo sapiens, UniProt P25440); assay: Competitive binding affinity to human BRD2 bromodomain 2 expressed in T7 phage-infected Escherichia coli BL21(DE3) cells incubated for 1 hr by bromoscan assay
[3] = molecular target: T3, Bromodomain-containing protein 4 (Homo sapiens, UniProt O60885); assay: Competitive binding affinity to human BRD4 bromodomain 2 expressed in T7 phage-infected Escherichia coli BL21(DE3) cells incubated for 1 hr by bromoscan assay
[4] = molecular target: T3, Bromodomain-containing protein 4; assay: Competitive binding affinity to human BRD4 bromodomain 1 expressed in T7 phage-infected Escherichia coli BL21(DE3) cells incubated for 1 hr by bromoscan assay
CREB-binding protein [5] = molecular target: T1, CREB-binding protein; assay: Inhibition of human recombinant GST-tagged CREBBP using non acetylated ligand 1 as substrate incubated for 2 hrs by TR-FRET assay
Target sequence in this assay (Q92793 whole entry): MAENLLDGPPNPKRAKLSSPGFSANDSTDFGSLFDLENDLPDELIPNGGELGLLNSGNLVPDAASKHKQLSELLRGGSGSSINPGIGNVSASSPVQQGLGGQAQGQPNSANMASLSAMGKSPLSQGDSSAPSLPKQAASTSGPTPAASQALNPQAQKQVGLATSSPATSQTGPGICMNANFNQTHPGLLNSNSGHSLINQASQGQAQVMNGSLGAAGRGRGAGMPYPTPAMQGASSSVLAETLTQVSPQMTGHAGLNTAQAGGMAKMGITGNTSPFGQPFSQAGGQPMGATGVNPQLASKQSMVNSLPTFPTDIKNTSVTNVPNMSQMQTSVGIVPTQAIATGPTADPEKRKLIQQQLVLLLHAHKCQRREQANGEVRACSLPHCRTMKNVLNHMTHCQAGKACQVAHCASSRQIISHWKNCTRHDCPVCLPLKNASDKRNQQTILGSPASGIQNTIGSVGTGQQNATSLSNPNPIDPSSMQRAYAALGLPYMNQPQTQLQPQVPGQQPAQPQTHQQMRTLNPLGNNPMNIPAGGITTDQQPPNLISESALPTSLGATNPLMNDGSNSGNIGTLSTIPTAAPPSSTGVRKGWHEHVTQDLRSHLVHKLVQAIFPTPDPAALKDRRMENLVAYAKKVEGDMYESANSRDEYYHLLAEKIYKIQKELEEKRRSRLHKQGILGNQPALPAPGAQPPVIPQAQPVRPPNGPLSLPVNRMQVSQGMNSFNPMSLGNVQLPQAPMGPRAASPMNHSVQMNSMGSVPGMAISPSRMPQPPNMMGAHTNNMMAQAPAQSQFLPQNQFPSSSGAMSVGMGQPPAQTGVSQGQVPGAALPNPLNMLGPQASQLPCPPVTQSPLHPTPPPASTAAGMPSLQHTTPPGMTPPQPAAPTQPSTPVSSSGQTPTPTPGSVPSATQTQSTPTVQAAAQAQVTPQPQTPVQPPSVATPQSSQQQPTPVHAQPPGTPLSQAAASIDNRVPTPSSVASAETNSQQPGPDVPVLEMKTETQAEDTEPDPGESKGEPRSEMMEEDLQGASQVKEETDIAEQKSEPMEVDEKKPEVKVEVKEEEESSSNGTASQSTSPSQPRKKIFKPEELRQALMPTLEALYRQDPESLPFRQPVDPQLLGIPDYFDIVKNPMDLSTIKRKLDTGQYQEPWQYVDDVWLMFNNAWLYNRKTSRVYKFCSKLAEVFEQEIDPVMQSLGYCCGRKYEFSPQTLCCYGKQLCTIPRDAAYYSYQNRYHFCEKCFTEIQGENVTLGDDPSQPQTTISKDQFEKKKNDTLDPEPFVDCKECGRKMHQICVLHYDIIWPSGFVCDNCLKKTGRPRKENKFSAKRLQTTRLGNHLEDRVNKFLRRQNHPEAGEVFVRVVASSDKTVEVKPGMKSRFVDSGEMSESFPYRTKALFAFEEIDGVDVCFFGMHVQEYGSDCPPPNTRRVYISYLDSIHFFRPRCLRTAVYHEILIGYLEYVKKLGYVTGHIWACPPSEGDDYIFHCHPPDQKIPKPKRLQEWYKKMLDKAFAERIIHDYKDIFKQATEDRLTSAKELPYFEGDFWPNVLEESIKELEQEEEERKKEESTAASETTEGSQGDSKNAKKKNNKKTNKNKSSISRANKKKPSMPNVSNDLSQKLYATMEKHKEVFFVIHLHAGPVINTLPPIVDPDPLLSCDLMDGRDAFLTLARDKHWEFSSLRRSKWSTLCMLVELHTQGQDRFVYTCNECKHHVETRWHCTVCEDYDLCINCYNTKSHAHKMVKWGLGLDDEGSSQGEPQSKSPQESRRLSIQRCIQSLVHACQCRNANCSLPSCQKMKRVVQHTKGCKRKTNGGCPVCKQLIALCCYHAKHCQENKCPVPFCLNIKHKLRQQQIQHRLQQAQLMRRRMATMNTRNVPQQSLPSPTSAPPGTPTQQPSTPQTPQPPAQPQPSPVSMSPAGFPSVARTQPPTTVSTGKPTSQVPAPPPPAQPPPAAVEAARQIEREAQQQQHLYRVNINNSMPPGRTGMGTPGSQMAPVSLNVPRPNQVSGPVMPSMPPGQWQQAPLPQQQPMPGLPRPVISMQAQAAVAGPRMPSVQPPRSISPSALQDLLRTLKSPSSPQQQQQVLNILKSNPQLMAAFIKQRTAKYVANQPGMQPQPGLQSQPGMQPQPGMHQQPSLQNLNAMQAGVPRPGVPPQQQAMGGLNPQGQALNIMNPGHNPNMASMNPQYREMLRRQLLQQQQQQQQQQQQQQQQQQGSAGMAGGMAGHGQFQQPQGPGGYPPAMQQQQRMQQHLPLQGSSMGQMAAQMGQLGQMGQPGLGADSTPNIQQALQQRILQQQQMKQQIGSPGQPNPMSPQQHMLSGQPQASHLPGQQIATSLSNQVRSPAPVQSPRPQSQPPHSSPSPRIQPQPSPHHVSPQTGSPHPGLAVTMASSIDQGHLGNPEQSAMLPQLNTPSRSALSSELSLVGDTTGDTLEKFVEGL

[6] = molecular target: Histone acetyltransferase p300 (Homo sapiens) (UniProt Q09472); assay: Binding affinity to EP300 (unknown origin) at 100 uM by SYPRO orange staining based fluorescence thermal shift assay
[7] = molecular target: T2, Bromodomain-containing protein 2; assay: Competitive binding affinity to human BRD2 bromodomain 1 expressed in T7 phage-infected Escherichia coli BL21(DE3) cells incubated for 1 hr by bromoscan assay
CREB-binding protein [8] = molecular target: T1, CREB-binding protein; assay: Binding affinity to human His-tagged CREBBP expressed in Escherichia coli BL21(DE3) cells by isothermal titration calorimetry
Target sequence in this assay (Q92793 whole entry): as above

CREB-binding protein [9] = molecular target: T1, CREB-binding protein; assay: Competitive binding affinity to human His-tagged CREBBP expressed in T7 phage-infected Escherichia coli BL21(DE3) cells incubated for 1 hr by bromoscan assay
Target sequence in this assay (Q92793 whole entry): as above

[10] = molecular target: T3, Bromodomain-containing protein 4; assay: Binding affinity to human BRD4 bromodomain 1 expressed in Escherichia coli BL21(DE3) cells at 100 uM by SYPRO orange staining based fluorescence thermal shift assay
CREB-binding protein [11] = molecular target: T1, CREB-binding protein; assay: Binding affinity to human His-tagged CREBBP expressed in Escherichia coli BL21(DE3) cells at 50 uM by SYPRO orange staining based fluorescence thermal shift assay
[12] = molecular target: Histone acetyltransferase p300 (Homo sapiens) (UniProt Q09472); assay: Binding affinity to EP300 (unknown origin) at 50 uM by SYPRO orange staining based fluorescence thermal shift assay
[13] = as §1; format: functional; settings: ML-2, 48 h
[14] = as §2; format: functional; settings: MOLM-13, 48 h
CREB-binding protein [15] = molecular target: T1, CREB-binding protein; assay: Competitive binding affinity to human His-tagged CREBBP expressed in T7 phage-infected Escherichia coli BL21(DE3) cells at 50 uM incubated for 1 hr by bromoscan assay relative to control
CREB-binding protein [16] = molecular target: T1, CREB-binding protein; assay: Competitive binding affinity to human His-tagged CREBBP expressed in T7 phage-infected Escherichia coli BL21(DE3) cells at 25 uM incubated for 1 hr by bromoscan assay relative to control

Histone acetyltransferase p300 (Homo sapiens), sequence (Q09472 whole entry): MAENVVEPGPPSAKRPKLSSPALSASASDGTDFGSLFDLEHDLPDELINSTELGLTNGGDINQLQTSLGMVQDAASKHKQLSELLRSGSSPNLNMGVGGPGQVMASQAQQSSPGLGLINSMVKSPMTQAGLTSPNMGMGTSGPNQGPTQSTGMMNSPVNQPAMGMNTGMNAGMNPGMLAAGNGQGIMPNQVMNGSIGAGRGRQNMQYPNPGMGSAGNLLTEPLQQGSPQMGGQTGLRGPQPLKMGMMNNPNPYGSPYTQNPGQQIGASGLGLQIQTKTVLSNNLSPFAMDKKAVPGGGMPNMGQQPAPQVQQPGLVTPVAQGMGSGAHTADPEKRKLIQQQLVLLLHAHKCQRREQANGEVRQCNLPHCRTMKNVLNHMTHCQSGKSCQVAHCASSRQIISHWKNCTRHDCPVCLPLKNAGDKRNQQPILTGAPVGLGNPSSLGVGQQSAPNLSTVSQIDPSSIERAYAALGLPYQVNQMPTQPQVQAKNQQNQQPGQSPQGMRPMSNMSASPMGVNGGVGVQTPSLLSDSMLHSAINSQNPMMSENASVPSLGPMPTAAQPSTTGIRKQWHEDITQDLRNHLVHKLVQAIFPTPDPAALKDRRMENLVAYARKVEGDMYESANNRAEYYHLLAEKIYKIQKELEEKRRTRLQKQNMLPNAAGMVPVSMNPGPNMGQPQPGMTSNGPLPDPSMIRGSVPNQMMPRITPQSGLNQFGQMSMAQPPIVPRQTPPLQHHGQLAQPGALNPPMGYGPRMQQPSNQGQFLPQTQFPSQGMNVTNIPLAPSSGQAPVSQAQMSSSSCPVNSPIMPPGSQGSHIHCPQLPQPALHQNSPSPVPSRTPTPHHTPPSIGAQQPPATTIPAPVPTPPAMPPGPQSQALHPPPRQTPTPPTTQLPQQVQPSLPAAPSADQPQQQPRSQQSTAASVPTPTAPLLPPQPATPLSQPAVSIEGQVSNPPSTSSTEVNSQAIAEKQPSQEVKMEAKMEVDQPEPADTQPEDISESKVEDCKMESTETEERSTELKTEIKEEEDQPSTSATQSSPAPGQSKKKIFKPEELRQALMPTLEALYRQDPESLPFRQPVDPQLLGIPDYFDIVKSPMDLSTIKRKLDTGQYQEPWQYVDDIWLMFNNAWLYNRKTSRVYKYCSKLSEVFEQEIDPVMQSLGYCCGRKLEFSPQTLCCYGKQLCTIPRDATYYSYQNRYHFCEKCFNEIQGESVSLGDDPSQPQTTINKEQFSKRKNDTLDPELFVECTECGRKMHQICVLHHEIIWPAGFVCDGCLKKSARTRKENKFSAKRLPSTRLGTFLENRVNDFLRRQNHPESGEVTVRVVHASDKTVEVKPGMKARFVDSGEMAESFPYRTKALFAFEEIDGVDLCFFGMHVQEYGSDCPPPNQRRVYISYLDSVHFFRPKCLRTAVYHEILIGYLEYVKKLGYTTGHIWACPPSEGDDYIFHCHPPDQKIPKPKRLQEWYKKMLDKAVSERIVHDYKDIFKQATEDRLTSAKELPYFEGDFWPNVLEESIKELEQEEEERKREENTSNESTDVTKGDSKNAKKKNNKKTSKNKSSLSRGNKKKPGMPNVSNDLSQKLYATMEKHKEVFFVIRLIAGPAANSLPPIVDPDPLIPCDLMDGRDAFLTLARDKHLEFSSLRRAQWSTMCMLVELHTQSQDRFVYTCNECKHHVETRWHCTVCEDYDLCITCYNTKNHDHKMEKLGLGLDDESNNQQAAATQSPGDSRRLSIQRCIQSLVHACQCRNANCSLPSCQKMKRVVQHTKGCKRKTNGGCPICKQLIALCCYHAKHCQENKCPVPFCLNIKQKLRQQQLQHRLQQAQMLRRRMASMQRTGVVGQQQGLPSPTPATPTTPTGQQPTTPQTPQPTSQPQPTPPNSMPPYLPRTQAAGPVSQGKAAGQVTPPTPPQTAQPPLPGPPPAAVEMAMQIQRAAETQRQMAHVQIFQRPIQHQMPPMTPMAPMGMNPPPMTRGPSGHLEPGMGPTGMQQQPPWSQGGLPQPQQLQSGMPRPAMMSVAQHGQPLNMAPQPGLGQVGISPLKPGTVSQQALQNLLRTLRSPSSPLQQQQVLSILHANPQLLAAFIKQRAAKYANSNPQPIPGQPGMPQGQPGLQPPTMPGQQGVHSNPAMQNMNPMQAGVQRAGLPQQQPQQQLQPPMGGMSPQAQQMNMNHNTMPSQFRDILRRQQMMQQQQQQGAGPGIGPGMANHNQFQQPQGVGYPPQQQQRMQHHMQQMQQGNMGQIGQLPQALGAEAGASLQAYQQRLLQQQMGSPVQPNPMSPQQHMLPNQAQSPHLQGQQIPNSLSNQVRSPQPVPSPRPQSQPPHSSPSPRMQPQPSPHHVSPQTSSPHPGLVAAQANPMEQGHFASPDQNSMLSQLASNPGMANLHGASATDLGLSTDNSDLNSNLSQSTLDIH

For `CCOc1ccc(C(C)=O)cc1NC(=O)c1cccc(C(=O)O)c1`, the “growth inhibition (GI)” value (HL-60) was “Active”, the “growth inhibition (GI)” value (ML-2) was “Active” and the ΔTm (CREB-binding protein [1]) was 3.8 °C. The “growth inhibition (GI)” value (MOLM-13) was “Active”, the Kd [2] was over 50 µM and the Kd [3] was over 50 µM. For the same compound, the Kd [4] was over 50 µM, the IC50 (CREB-binding protein [5]) was 8.7 µM and the ΔTm [6] was 3.4 °C. For the same compound, the Kd [7] was over 50 µM, the Kd (CREB-binding protein [8]) was 2 µM and the Kd (CREB-binding protein [9]) was 0.67 µM. It also gave a ΔTm [10] of 0.4 °C.
In the case of `CCOc1ccc(C(C)=O)cc1NC(=O)c1cccc(C(=O)OC)c1`, the ΔTm (CREB-binding protein [1]) is reported as 2.8 °C, the IC50 (CREB-binding protein [5]) is reported as 5 µM and the Kd (CREB-binding protein [9]) is reported as 0.49 µM.
Work on `CCOc1ccc(C(=O)NC)cc1NC(=O)c1cccc(C(=O)O)c1` yielded a ΔTm (CREB-binding protein [1]) of 1.1 °C and a Kd (CREB-binding protein [9]) of 37 µM.
For `CCOc1ccc(C(C)=O)cc1NC(=O)c1cc(C(=O)O)cc(-c2ccoc2)c1`, the “growth inhibition (GI)” value (HL-60) was “Active”, the “growth inhibition (GI)” value (ML-2) was “Active” and the ΔTm (CREB-binding protein [1]) was 5.2 °C. The “growth inhibition (GI)” value (MOLM-13) was “Active”, the Kd [2] was 24 µM and the Kd [3] was over 36 µM. For the same compound, the Kd [4] was 9.8 µM, the IC50 (CREB-binding protein [5]) was 1 µM and the ΔTm [6] was 5.9 °C. The Kd [7] was 24 µM, the Kd (CREB-binding protein [8]) was 0.3 µM and the Kd (CREB-binding protein [9]) was 0.17 µM. The ΔTm [10] was 1.5 °C.
With `CCOc1ccc(C(C)=O)cc1NC(=O)c1cccc(S(=O)(=O)Nc2ccccc2)c1` the ΔTm (CREB-binding protein [1]) was 0 °C, the IC50 (CREB-binding protein [5]) was over 10 µM and the ΔTm [6] was 0 °C.
In the case of `CCOc1ccc(C(C)=O)cc1NC(=O)c1cc(C(=O)O)cc(-c2ccncc2)c1`, the IC50 (CREB-binding protein [5]) is reported as 3 µM, the ΔTm (CREB-binding protein [11]) is reported as 4.1 °C and the ΔTm [12] is reported as 3.9 °C.
With `CCOc1ccc(C(C)=O)cc1NC(=O)c1cccc(NS(=O)(=O)c2ccccc2)c1` the ΔTm (CREB-binding protein [1]) was 0.5 °C and the ΔTm [6] was 0.4 °C.
With `CC(=O)c1ccc(OCC2CC2)c(NC(=O)c2cccc(C(=O)O)c2)c1` the “growth inhibition (GI)” value (HL-60) was “Active”, the “growth inhibition (GI)” value (ML-2) was “Active” and the ΔTm (CREB-binding protein [1]) was 3.4 °C. The “growth inhibition (GI)” value (MOLM-13) was “Active” and the ΔTm [6] was 3.6 °C.
With `CC(=O)c1ccc(OCC(C)C)c(NC(=O)c2cccc(C(=O)O)c2)c1` the “growth inhibition (GI)” value (HL-60) was “Active”, the “growth inhibition (GI)” value (ML-2) was “Active” and the ΔTm (CREB-binding protein [1]) was 3.5 °C. For the same compound, the “growth inhibition (GI)” value (MOLM-13) was “Active” and the ΔTm [6] was 3 °C.
With `CCOc1ccc(C(C)=O)cc1NC(=O)c1cc(COC2CCCCO2)cc(C(=O)O)c1` (stereo unspecified) the “growth inhibition (GI)” value (HL-60) was “Active”, the GI50 [13] was 14.4 µM and the ΔTm (CREB-binding protein [1]) was 6 °C. It also gave a GI50 [14] of 5.3 µM, an IC50 (CREB-binding protein [5]) of 1 µM and a ΔTm [6] of 5.9 °C. It also gave a Kd (CREB-binding protein [9]) of 0.37 µM and a ΔTm [10] of 1.7 °C.
`CCOc1ccc(C(C)=O)cc1NC(=O)c1cccc(-n2cnnn2)c1` gave a ΔTm (CREB-binding protein [1]) of 3.3 °C, an IC50 (CREB-binding protein [5]) of 7.5 µM and a ΔTm [6] of 2.6 °C.
With `CCCOc1ccc(C(C)=O)cc1NC(=O)c1cccc(C(=O)O)c1` the “growth inhibition (GI)” value (HL-60) was “Active”, the “growth inhibition (GI)” value (ML-2) was “Active” and the ΔTm (CREB-binding protein [1]) was 3.8 °C. For the same compound, the “growth inhibition (GI)” value (MOLM-13) was “Active”, the IC50 (CREB-binding protein [5]) was 7.4 µM and the ΔTm [6] was 3.4 °C.
In the case of `CCOc1ccc(C(C)=O)cc1NC(=O)c1ccccc1C(=O)O`, the ΔTm (CREB-binding protein [1]) is reported as 1.9 °C and the IC50 (CREB-binding protein [5]) is reported as 64 µM.
In the case of `CCOc1ccc(C(C)=O)cc1NC(=O)c1cc(COC)cc(C(=O)O)c1`, the “growth inhibition (GI)” value (HL-60) is reported as “Active”, the “growth inhibition (GI)” value (ML-2) is reported as “Active” and the ΔTm (CREB-binding protein [1]) is reported as 5.1 °C. The “growth inhibition (GI)” value (MOLM-13) was “Active”, the Kd [2] was over 50 µM and the Kd [3] was over 50 µM. The Kd [4] was 25 µM, the IC50 (CREB-binding protein [5]) was 2 µM and the ΔTm [6] was 4.6 °C. The Kd [7] was over 50 µM, the Kd (CREB-binding protein [8]) was 0.8 µM and the Kd (CREB-binding protein [9]) was 0.53 µM. It also gave a ΔTm [10] of 1.3 °C.
For `CC(=O)c1ccc(F)c(NC(=O)/C=C/C(=O)O)c1`, the ΔTm (CREB-binding protein [1]) was -0.1 °C and the IC50 (CREB-binding protein [5]) was over 100 µM.
Work on `CC(=O)c1cccc(NC(=O)/C=C/C(=O)O)c1` yielded a ΔTm (CREB-binding protein [1]) of 0.1 °C and an IC50 (CREB-binding protein [5]) of 30 µM.
Work on `CC(=O)c1cccc(NC(=O)N2C[C@@H](C)O[C@@H](c3ccccc3)C2)c1` yielded an Activity (CREB-binding protein [15]) of 9.4%.
Work on `CC(=O)c1ccc(OCc2ccccc2)c(NC(=O)c2cccc(C(=O)O)c2)c1` yielded a ΔTm (CREB-binding protein [1]) of 3.3 °C and a ΔTm [6] of 2.6 °C.
`CC(=O)c1ccc(C2CC2)c(NC(=O)c2cccc(C(=O)O)c2)c1` gave a ΔTm (CREB-binding protein [1]) of 3.1 °C, an IC50 (CREB-binding protein [5]) of 15 µM and a ΔTm [6] of 3.1 °C.
Work on `COc1ccc(C(C)=O)cc1NC(=O)/C=C/C(=O)O` yielded a ΔTm (CREB-binding protein [1]) of 1.1 °C and an IC50 (CREB-binding protein [5]) of 60 µM.
For `CCOc1ccc(C(C)=O)cc1NC(=O)/C=C/C(=O)O`, the ΔTm (CREB-binding protein [1]) was 1.8 °C, the Activity (CREB-binding protein [15]) was 2.5% and the Kd (CREB-binding protein [9]) was 4.7 µM.
With `CCOc1ccc(C(C)=O)cc1NC(=O)c1cc(CO)cc(C(=O)O)c1` the “growth inhibition (GI)” value (HL-60) was “Active”, the “growth inhibition (GI)” value (ML-2) was “Active” and the ΔTm (CREB-binding protein [1]) was 3.8 °C. For the same compound, the “growth inhibition (GI)” value (MOLM-13) was “Active”, the IC50 (CREB-binding protein [5]) was 3 µM and the ΔTm [6] was 3.7 °C.
`CC(=O)c1cccc(NC(=O)Cn2c(=O)c3ccccc3n3nc(C)cc23)c1` gave an Activity (CREB-binding protein [16]) of 22%.
With `CCOc1ccc(C(C)=O)cc1NC(=O)C1CC1C(=O)O` (stereo unspecified) the ΔTm (CREB-binding protein [1]) was 1.1 °C and the IC50 (CREB-binding protein [5]) was over 100 µM.
In the case of `CCOc1ccc(C(C)=O)cc1C(=O)Nc1cccc(C(=O)O)c1`, the “growth inhibition (GI)” value (HL-60) is reported as “Active”, the “growth inhibition (GI)” value (ML-2) is reported as “Active” and the ΔTm (CREB-binding protein [1]) is reported as 3.4 °C. The “growth inhibition (GI)” value (MOLM-13) was “Active” and the Kd (CREB-binding protein [9]) was 2.5 µM.
`CC(=O)c1cccc(NC(=O)c2c(-n3cnnn3)sc(C)c2C)c1` gave an Activity (CREB-binding protein [16]) of 2% and a Kd (CREB-binding protein [9]) of 29 µM.
In the case of `CC(=O)c1ccc(C)c(NC(=O)/C=C/C(=O)O)c1`, the ΔTm (CREB-binding protein [1]) is reported as 0.2 °C and the IC50 (CREB-binding protein [5]) is reported as over 100 µM.
With `CC(=O)c1ccc(N2CCOCC2)c(NC(=O)c2cccc(C(=O)O)c2)c1` the ΔTm (CREB-binding protein [1]) was 1.4 °C and the ΔTm [6] was 1.3 °C.
